Experimental data reported in patent US20220054588A1, “USE OF SAP FOR THE TREATMENT OF EUROTIOMYCETES FUNGI INFECTIONS” (HUMANITAS MIRASOLE S.P.A., priority 2018, published 2022).

What was measured:
A. fumigatus conidia = assay: Resazurin-based fungal viability assay; parameters: species or system Aspergillus fumigatus; details: for microbicidal activity: 1 min, conidia pre-opsonised with human SAP
Description: FIG. 12 depicts the therapeutic efficacy of SAP in treatment of invasive aspergillosis. a) b) c) survival of transiently immunosuppressed wt mice after injection with the indicated doses of AF conidia. The curve of untreated mice (n=3) with cyclophosphamide is also shown (a). Human SAP (4 mg/Kg) was injected at 2 h and 24 h after infection. a) AF 5.10^7, n=17; AF 5.10^7+SAP, n=15; b) AF 1.10^7, n=7; AF 1.10^7+SAP, n=8; c) AF 5.10^6, n=8; AF 5.10^6+SAP, n=10.***, P<0.005 SAP-treated vs. saline (Mantel-Cox test). One-way ANOVA, P<0.0001. d) lung CFU in mice treated with cyclophosphamide and infected with 1.10^7 AF conidia.*, P<0.05 (Mann-Whitney test). e) quantitative analysis of AF viability performed using a resazurin-based assay. Plasma (30%) from wt and Apcs^−/− mice were incubated (1 min) with 1.5×10^5 AF conidia pre-opsonized or not with SAP. Results are mean±SD of red fluorescence (excitation/emission 535/580-610 nm) intensity of the resazurin once reduced to resorufin within viable cells. Effect of Posaconazole (POC; 1 μM) exposure is also shown. Results are mean±SEM relative to the condition without serum (grey symbols) of two experiments performed with n=10 mice/group. […] AF viability assay performed in sera depleted from complement components. Figure summarizes one experiment out of 5 also conducted with serum 10%. Mean±SD.*, P<0.05; **, P<0.01 (unpaired t-test). g) and h) FACS analysis of MAC deposition on AF conidia (1×10^7) in presence of sera depleted from complement components (e) and the effect of SAP (f). Mean±SEM of 2 experiments performed out of 4. e, f,*, P<0.05;**, P<0.01;***, P<0.005;****, P<0.001; (Mann-Whitney test).
Fungal viability assay. Effect of SAP on A. fumigatus killing was evaluated by a resazurin-based cell viability assay as described (Mantovani et al., 2010). A volume of 10 μl PBS, pH 7.4, containing 1.5×10^5 conidia eventually opsonized with human SAP (100 μg/ml per 1×10^9 conidia, 1 h at r.t.) was placed into sterile round bottom Corning® 96-well polypropylene microplate and incubated for 1 and 30 min at 37° C. with 20 μl of 10 and 30% plasma-heparin from wt and Apcs^−/− mice or human serum and different complement component-depleted sera. After incubation, plates were immediately cooled on ice and cold-centrifuged (2000 rpm, 10 min at 4° C.), and then supernatant removed. Conidia not incubated with plasma or serum were used as a negative control. Conidia treated with the fungicide drug Posaconazole (POC; 1 μM) were considered as positive control in the assay. […] After 17 h reaction at 37° C., fluorescence (excitation/emission at ≈530-560/590 nm) intensity was measured by microplate reader Synergy™ H4 (BioTek, France). Results represent ratio of fluorescence intensity values relative to those measured in negative controls. […]

[1] = test system: complement activation on A. fumigatus conidia; assay: Complement C3 deposition on A. fumigatus conidia and C5a formation in mouse plasma; assay type: biochemical; details: Sap-opsonised conidia
Description: FIG. 6 depicts the effect of SAP on complement activation on A. fumigatus. a) FACS analysis of plasma C3 deposition on AF conidia (1×10^7) opsonized or not with Sap. b) plasma C5a levels after incubation with AF conidia shown in a. a) and b) n=10 mouse plasma/genotype. b) representative experiment out of three performed. a) and b) Mean±SEM.*, P<0.05;**, P<0.01;***, P<0.005;****, P<0.0001 (unpaired t-test).
Complement deposition on Aspergillus fumigatus. A volume of 10 μl PBS, pH 7.4, containing 1×10^7 conidia eventually opsonized with murine SAP (100 μg/ml per 1×10^9 conidia, 1 h at r.t.) was incubated (37° C.) in round bottom wells of Corning® 96-well polypropylene microplates for the indicated time points with 20 μl mouse plasma-heparin or 20 μl human NS and complement depleted sera (diluted in PBS at 10% and 30%). Complement deposition was blocked by addition of EDTA (10 mM final concentration) and by cooling in ice. After centrifugation (2000 rpm, 10 min at 4° C.), when indicated supernatant was collected for C5a measurement by ELISA. […] Conidia were then incubated (1 h, at 4° C.) with Alexa Fluor® 488 and 647-conjugated species-specific cross-adsorbed detection antibodies (2 μg/ml; ThermoFisher Scientific-Molecular Probes) and analysed by BD FACS Canto™ II Flow Cytometer (BD Biosciences) using forward and side scatter parameters to gate on at least 8,000 conidia. […] Results were expressed as frequency of conidia showing fluorescence compared with irrelevant controls and as geometric conidia MFI.
Proteins. […] Purity of the recombinant protein was assessed by SDS-PAGE followed by silver staining. […] SAP levels were measured in mouse plasma by ELISA (DuoSet ELISA; R&D Systems). Murine TNF-α, CCL2, MPO were measured by ELISA (DuoSet ELISA; R&D Systems). Murine C5a was measured either in plasma-heparin or in BALFs previously stored at −80° C. by DuoSet ELISA (R&D Systems) maintaining EDTA (10 mM) throughout the assay in order to stop the activation of the complement cascade.

“human native SAP: Native SAP from human serum purchased by Merck-Millipore; Serum Amyloid P component, SEQ ID NO: 1” was tested, and the microbicidal activity (A. fumigatus conidia; Apcs−/− mouse plasma) was “increase of microbicidal activity”, the “SAP effect on microbicidal activity” value (A. fumigatus conidia; human serum depleted of C1q) was “abolished” and the “SAP effect on microbicidal activity” value (A. fumigatus conidia; human serum depleted of C3) was “abolished”. For the same molecule, the microbicidal activity (A. fumigatus conidia; wt mouse plasma) was “increase of microbicidal activity”.

B1: recombinant murine SAP: recombinant murine SAP from mouse myeloma cell line NSO (R&D Systems) (protein, UniProt P12246 21-224, looked up)
Serum amyloid P-component: QTDLKRKVFVFPRESETDHVKLIPHLEKPLQNFTLCFRTYSDLSRSQSLFSYSVKGRDNELLIYKEKVGEYSLYIGQSKVTVRGMEEYLSPVHLCTTWESSSGIVEFWVNGKPWVKKSLQREYTVKAPPSIVLGQEQDNYGGGFQRSQSFVGEFSDLYMWDYVLTPQDILFVYRDSPVNPNILNWQALNYEINGYVVIRPRVWD
B1 was tested, and the “in vitro C3 deposition on A. fumigatus conidia” value ([1]; Apcs−/− and wt plasma) was “rescued or increased”, the C5a formation ([1]; Apcs−/− plasma, 1, 5, 10, 20 min) was “rescued” and the C5a formation ([1]; wt plasma) was “increased”.
